Data published in US20110086834A1, “ALKYNYL ALCOHOLS AS KINASE INHIBITORS” (AMGEN INC., priority 2008, published 2011).

Target: T1, NIK (Homo sapiens, UniProt Q99558)
T1 construct: Both assays utilize a truncated form of NIK containing only the catalytic domain; made in house; host or cells: baculovirus expression system (insect cells implied)
Assay: homogenous time resolved fluorescence (HTRF) assay for NIK Ki measurement
Format: biochemical
Details: truncated NIK (catalytic domain only), autophosphorylation; 10 nM enzyme; 20, 100, 200 or 500 μM ATP; room temperature, 2 hours; read-out: Ki activity in the homogenous time resolved fluorescence (HTRF) assay for NIK

T1 sequence (Q99558 400-655 limits assumed): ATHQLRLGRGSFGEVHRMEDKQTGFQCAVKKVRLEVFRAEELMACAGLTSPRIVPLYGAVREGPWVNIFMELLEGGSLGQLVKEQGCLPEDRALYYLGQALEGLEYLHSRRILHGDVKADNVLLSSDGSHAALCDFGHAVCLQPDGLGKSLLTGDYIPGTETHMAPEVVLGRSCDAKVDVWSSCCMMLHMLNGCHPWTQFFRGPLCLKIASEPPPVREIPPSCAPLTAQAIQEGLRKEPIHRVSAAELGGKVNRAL

Compared with `C[C@@](O)(C#Cc1ccc2c(c1)N(c1ncncc1Cl)CC21CCOCC1)c1nccs1` [Example 32, (2R)-4-[1-(5-chloropyrimidin-4-yl)-1,2,2′,3′,5′,6′-hexahydrospiro[indole-3,4′-pyran]-6-yl]-2-(1,3-thiazol-2-yl)but-3-yn-2-ol], `C[C@](O)(C#Cc1ccc2c(c1)N(c1nc(N)ncc1Cl)CC21CCOCC1)c1nccs1` (single isomer, unassigned) [Example 209a] is higher in Ki: less than 1000 nM for the first, 1000 to 30000 nM for the second. The first binds more tightly here.

`CC(C)(C)C(=O)n1cc(-c2nc(N)ncc2Cl)c2cc(C#CC3(O)CCCC3)ccc21` [Example 122, 1-(3-(2-amino-5-chloropyrimidin-4-yl)-5-(2-(1-hydroxycyclopentyl)ethynyl)-1H-indol-1-yl)-2,2-dimethylpropan-1-one] and `Nc1ncc(Cl)c(-c2cn(C(=O)C3CC3)c3ccc(C#CC4(O)CCCC4)cc23)n1` [Example 121, (3-(2-amino-5-chloropyrimidin-4-yl)-5-(2-(1-hydroxycyclopentyl)ethynyl)-1H-indol-1-yl)(cyclopropyl)methanone] cannot be ordered by Ki: less than 1000 nM for the first, less than 1000 nM for the second.

First: Cc1ccc(C(C)(O)C#Cc2ccc3c(c2)N(c2ccnc(N)n2)CC3)s1 (stereo not shown) [Example 280, 4-(1-(2-Amino-4-pyrimidinyl)-2,3-dihydro-1H-indol-6-yl)-2-(5-methyl-2-thienyl)-3-butyn-2-ol]
Second: Cc1nc(C)c(C(C)(O)C#Cc2ccc3c(c2)N(c2ccnc(N)n2)CC3)s1 (stereo not shown) [Example 283, 4-(1-(2-Amino-4-pyrimidinyl)-2,3-dihydro-1H-indol-6-yl)-2-(2,4-dimethyl-1,3-thiazol-5-yl)-3-butyn-2-ol]
The Ki of the first is lower: less than 1000 nM for the first, 1000 to 30000 nM for the second.

`CC1(CO)CN(c2nc(N)ncc2F)c2cc(C#CC3(O)CCCC3)ccc21` (stereo not shown) [Example 66, 1-((1-(2-amino-5-fluoro-4-pyrimidinyl)-3-(hydroxymethyl)-3-methyl-2,3-dihydro-1H-indol-6-yl)ethynyl)cyclopentanol] and `COCCC1(C)CN(c2nc(N)ncc2Cl)c2cc(C#CC3(O)CCCC3)ccc21` (stereo not shown) [Example 64, 1-((1-(2-amino-5-chloro-4-pyrimidinyl)-3-(2-methoxyethyl)-3-methyl-2,3-dihydro-1H-indol-6-yl)ethynyl)cyclopentanol] cannot be ordered by Ki: less than 1000 nM for the first, less than 1000 nM for the second.

`CC(O)(C#Cc1ccc2c(c1)N(c1nc(N)ncc1Cl)CC2)c1nc(C#N)cs1` (stereo not shown) [Example 9, 2-(4-(1-(2-amino-5-chloropyrimidin-4-yl)indolin-6-yl)-2-hydroxybut-3-yn-2-yl)thiazole-4-carbonitrile] and `Cc1cc([C@@](C)(O)C#Cc2ccc3c(c2)N(c2nc(N)ncc2Cl)CC3)on1` (single isomer, unassigned) [Example 28] fall in the same range of Ki: 1000 to 30000 nM for the first, 1000 to 30000 nM for the second.

Compared with `CC(C)(C#Cc1ccc2c(c1)N(c1nc(N)ncc1Cl)CC2(C)CO)CO` (single isomer, unassigned) [Example 58, 4-((3S*)-1-(2-amino-5-chloro-4-pyrimidinyl)-3-(hydroxymethyl)-3-methyl-2,3-dihydro-1H-indol-6-yl)-2,2-dimethyl-3-Butyn-1-ol], `CC1(C)CN(c2nc(N)ncc2Cl)c2cc(C#C[C@](C)(O)c3nccs3)ccc21` (single isomer, unassigned) [Example 41] is higher in Ki: less than 1000 nM for the first, 1000 to 30000 nM for the second. The first binds more tightly here.

`O=C(NCCCN1CCOCC1)c1cnccc1Nc1cccc(C#CC2(O)CCCC2)c1` [Example 253, 4-((3-((1-Hydroxycyclopentyl)ethynyl)phenyl)amino)-N-(3-(4-morpholinyl)propyl)-3-pyridinecarboxamide] and `Nc1ncc(OCCN2CCOCC2)c(-c2c[nH]c3ccc(C#CC4(O)CCCC4)cc23)n1` [Example 230, 1-((3-(2-Amino-5-(2-(4-morpholinyl)ethoxy)-4-pyrimidinyl)-1H-indol-5-yl)ethynyl)cyclopentanol] fall in the same range of Ki: 1000 to 30000 nM for the first, 1000 to 30000 nM for the second.

`Cc1cc([C@@](C)(O)C#Cc2ccc3c(c2)N(c2nc(N)ncc2Cl)CC32CCOCC2)on1` (single isomer, unassigned) [Example 30] and `C[C@@](O)(C#Cc1ccc2c(c1)N(c1nc(N)ncc1Cl)CC21CCOCC1)c1nccs1` (single isomer, unassigned) [Example 209] cannot be ordered by Ki: less than 1000 nM for the first, less than 1000 nM for the second.

`CC(O)(C#Cc1cccc(Nc2ccncc2C(F)(F)F)n1)c1nccs1` (stereo not shown) [Example 174, 2-(thiazol-2-yl)-4-(6-(3-(trifluoromethyl)pyridin-4-ylamino)pyridin-2-yl)but-3-yn-2-ol] and `CC(O)(C#Cc1cccc(Nc2nc(N)ncc2Cl)n1)c1nccs1` (stereo not shown) [Example 147, 4-(6-(2-Amino-5-chloropyrimidin-4-ylamino)pyridin-2-yl)-2-(thiazol-2-yl)but-3-yn-2-ol] fall in the same range of Ki: 1000 to 30000 nM for the first, 1000 to 30000 nM for the second.

`Cc1cnc(C(C)(O)C#Cc2ccc3c(c2)N(c2nc(N)ncc2Cl)CC3(C)C)s1` (stereo not shown) [Example 303, 4-(1-(2-Amino-5-chloro-4-pyrimidinyl)-3,3-dimethyl-2,3-dihydro-1H-indol-6-yl)-2-(5-methyl-1,3-thiazol-2-yl)-3-butyn-2-ol] and `CC(O)(C#Cc1ccc2c(c1)N(c1nc(N)ncc1Cl)CC2(C)C)c1ccn[nH]1` (stereo not shown) [Example 80, 4-(1-(2-amino-5-chloropyrimidin-4-yl)-3,3-dimethylindolin-6-yl)-2-(1H-pyrazol-5-yl)but-3-yn-2-ol and 4-(1-(2-amino-5-chloropyrimidin-4-yl)-3,3-dimethylindolin-6-yl)-2-(1H-pyrazol-3-yl)but-3-yn-2-ol] cannot be ordered by Ki: less than 1000 nM for the first, less than 1000 nM for the second.

`CC(O)(C#Cc1ccc2c(c1)N(c1ncns1)CC2(C)C)c1cnccn1` (stereo not shown) [Example 13, 4-(3,3-dimethyl-1-(1,2,4-thiadiazol-5-yl)indolin-6-yl)-2-(pyrazin-2-yl)but-3-yn-2-ol] and `CC(O)(C#Cc1ccc2c(c1)N(c1ccncc1Cl)CC2(C)C)c1ncco1` (stereo not shown) [Example 314, 4-(1-(3-chloro-4-pyridinyl)-3,3-dimethyl-2,3-dihydro-1H-indol-6-yl)-2-(1,3-oxazol-2-yl)-3-butyn-2-ol] cannot be ordered by Ki: less than 1000 nM for the first, less than 1000 nM for the second.

`Cn1cc(-c2nc(N)ncc2Cl)c2cc(C#CC(C)(O)c3nccs3)ccc21` (stereo not shown) [Example 116, 4-(3-(2-amino-5-chloropyrimidin-4-yl)-1-methyl-1H-indol-5-yl)-2-(thiazol-2-yl)but-3-yn-2-ol] and `Cc1ccc(C#CC(C)(O)c2nccs2)cc1Nc1nc(N)ncc1Cl` (stereo not shown) [Example 160, 4-(3-(2-Amino-5-chloropyrimidin-4-ylamino)-4-methylphenyl)-2-(thiazol-2-yl)but-3-yn-2-ol] cannot be ordered by Ki: less than 1000 nM for the first, less than 1000 nM for the second.

`C[C@](O)(C#Cc1ccc2c(c1)N(c1ccnc(N)n1)CC2)c1nccs1` [Example 297, (2S)-4-(1-(2-amino-4-pyrimidinyl)-2,3-dihydro-1H-indol-6-yl)-2-(1,3-thiazol-2-yl)-3-butyn-2-ol] and `CN1CC[C@@]2(C1)CN(c1nc(N)ncc1Cl)c1cc(C#C[C@@](C)(O)c3nccs3)ccc12` (relative stereo) [Example 195, (2R)-4-((3R*)-1-(2-Amino-5-chloro-4-pyrimidinyl)-1′-methyl-1,2-dihydrospiro[indole-3,3′-pyrrolidin]-6-yl)-2-(1,3-thiazol-2-yl)-3-butyn-2-ol] cannot be ordered by Ki: less than 1000 nM for the first, less than 1000 nM for the second.

`COCCN(C)c1ccc(C#C[C@@](C)(O)c2nccs2)cc1Nc1nc(N)ncc1Cl` [Example 154, (R)-4-(3-(2-Amino-5-chloropyrimidin-4-ylamino)-4-((2-methoxyethyl)(methyl)amino)phenyl)-2-(thiazol-2-yl)but-3-yn-2-ol] and `C[C@@](O)(C#Cc1ccc(CN2CCOCC2)c(Nc2nc(N)ncc2Cl)c1)c1nccs1` [Example 163, (R)-4-(3-(2-Amino-5-chloropyrimidin-4-ylamino)-4-(morpholinomethyl)phenyl)-2-(thiazol-2-yl)but-3-yn-2-ol] cannot be ordered by Ki: less than 1000 nM for the first, less than 1000 nM for the second.

`CN1CCC2(C1)CN(c1nc(N)ncc1Cl)c1cc(C#CC3(O)CCCC3)ccc12` (racemic) [Example 188, 1-((1-(2-Amino-5-chloro-4-pyrimidinyl)-r-methyl-1,2-dihydrospiro[indole-3,3′-pyrrolidin]-6-yl)ethynyl)cyclopentanol] and `CN1CC2(C1)CN(c1nc(N)ncc1Cl)c1cc(C#CC3(O)CCCC3)ccc12` [Example 180, 1-((1′-(2-amino-5-chloropyrimidin-4-yl)-1-methylspiro[azetidine-3,3′-indoline]-6′-yl)ethynyl)cyclopentanol] cannot be ordered by Ki: less than 1000 nM for the first, less than 1000 nM for the second.

`Nc1ncc(Cl)c(-c2cn(CC3CCCN3)c3ccc(C#CC4(O)CCCC4)cc23)n1` (stereo not shown) [Example 113, 1-(2-(3-(2-amino-5-chloropyrimidin-4-yl)-1-(pyrrolidin-2-ylmethyl)-1H-indol-5-yl)ethynyl)cyclopentanol] and `COCCOCCn1cc(-c2nc(N)ncc2Cl)c2cc(C#CC3(O)CCCC3)ccc21` [Example 124, 1-(2-(3-(2-amino-5-chloropyrimidin-4-yl)-1-(2-(2-methoxyethoxy)ethyl)-1H-indol-5-yl)ethynyl)cyclopentanol] cannot be ordered by Ki: less than 1000 nM for the first, less than 1000 nM for the second.

`CC(O)(C#Cc1ccc2[nH]nc(-c3ccns3)c2c1)c1nccs1` (stereo not shown) [Example 83, 4-(3-(isothiazol-5-yl)-1H-indazol-5-yl)-2-(thiazol-2-yl)but-3-yn-2-ol] and `C[C@@](O)(C#Cc1ccc2[nH]c(C(=O)N3CCOCC3)c(-c3ccncn3)c2c1)c1nccs1` [Example 91, (5-((R)-3-hydroxy-3-(thiazol-2-yl)but-1-ynyl)-3-(pyrimidin-4-yl)-1H-indol-2-yl)(morpholino)methanone] cannot be ordered by Ki: less than 1000 nM for the first, less than 1000 nM for the second.

`Cn1ccc(C(C)(O)C#Cc2ccc3c(c2)N(c2nc(N)ncc2Cl)CC3)n1` (stereo not shown) [Example 26, 4-(1-(2-amino-5-chloropyrimidin-4-yl)indolin-6-yl)-2-(1-methyl-1H-pyrazol-3-yl)but-3-yn-2-ol] and `Cn1cc(-c2ccncn2)c2cc(C#CC(C)(O)c3cscn3)ccc21` (stereo not shown) [Example 118, 4-(1-methyl-3-(pyrimidin-4-yl)-1H-indol-5-yl)-2-(thiazol-4-yl)but-3-yn-2-ol] cannot be ordered by Ki: less than 1000 nM for the first, less than 1000 nM for the second.

`COc1cc(Nc2nccc(-n3ccc4ccc(C#CC5(O)CCCC5)cc43)n2)cc(OC)c1OC` [Example 259, 1-((1-(2-((3,4,5-tris(methyloxy)phenyl)amino)-4-pyrimidinyl)-1H-indol-6-yl)-ethynyl)cyclopentanol] gave a Ki of less than 1000 nM.
